Article PMC6556873, “Rapid Covalent-Probe Discovery by Electrophile-Fragment Screening” (Journal of the American Chemical Society, 2019)
Like-named read-outs stand apart in the source and are kept apart here.

Experiments:
in vitro [1] = assay: in vitro; parameters: species or system HB2, CCD841; details: human, hek293 cells
in vitro [2] = assay: in vitro; parameters: species or system CCD841, HEK293; details: human, hb2 cells, read-out: HB-2 Cells Viability (%)
BSA = biological target: T1, BSA (Bos taurus, UniProt P02769); parameters: Intact protein LC/MS covalent labelling, fragments in pools of five, 200 uM each, 4 °C; details: 24 h, 4 °C, pool of five; 200 µM; covalent
T1 construct: gene ALB

NUDT7 = biological target: T2, NUDT7 (Homo sapiens, UniProt P0C024); parameters: Intact protein LC/MS covalent labelling, fragments in pools of five, 200 uM each, 4 °C; details: 24 h, 4 °C, pool of five; 200 µM; covalent
T2 construct: residues 14-235, E. coli, pNIC28-Bsa4, N-terminal His6 tag removed by TEV, construct 26672 Da

OTUB2 (OTUB2A) = biological target: T3, OTUB2 (OTUB2A) (Homo sapiens, UniProt Q96DC9); parameters: Intact protein LC/MS covalent labelling, fragments in pools of five, 200 uM each, 4 °C; details: 24 h, 4 °C, pool of five; 200 µM; covalent
T3 construct: full length residues 1-234, E. coli BL21(DE3)-R3, His tag removed by TEV, construct 27312 Da
T3 sequence (Q96DC9 1-234): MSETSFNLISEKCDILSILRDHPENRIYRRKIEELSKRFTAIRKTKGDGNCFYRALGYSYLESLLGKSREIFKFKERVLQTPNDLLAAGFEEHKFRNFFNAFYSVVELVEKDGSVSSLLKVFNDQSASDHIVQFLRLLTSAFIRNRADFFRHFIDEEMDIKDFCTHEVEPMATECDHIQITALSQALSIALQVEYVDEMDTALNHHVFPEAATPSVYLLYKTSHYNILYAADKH

PCAF = biological target: T4, PCAF (Homo sapiens, UniProt Q92831); parameters: Intact protein LC/MS covalent labelling, fragments in pools of five, 200 uM each, 4 °C; details: 24 h, 4 °C, pool of five; 200 µM; covalent
T4 construct: gene KAT2B

NNMT (hNNMT) = biological target: T5, NNMT (hNNMT) (Homo sapiens, UniProt P40261); parameters: Intact protein LC/MS covalent labelling, fragments in pools of five, 200 uM each, 4 °C; details: 24 h, 4 °C, pool of five; 200 µM; covalent
T5 construct: wild type, N-terminal His6 tag kept (no cleavage described), E. coli, construct 31248 Da
T5 sequence (P40261 1-264): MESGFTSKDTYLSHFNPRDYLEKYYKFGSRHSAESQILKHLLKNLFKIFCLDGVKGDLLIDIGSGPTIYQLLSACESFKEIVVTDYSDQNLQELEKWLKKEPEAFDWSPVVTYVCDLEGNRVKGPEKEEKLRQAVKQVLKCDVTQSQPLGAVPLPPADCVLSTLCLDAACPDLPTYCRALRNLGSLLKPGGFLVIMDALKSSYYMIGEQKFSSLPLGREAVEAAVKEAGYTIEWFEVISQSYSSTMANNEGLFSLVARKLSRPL

in vitro [3] = assay: in vitro; parameters: species or system HB2, HEK293; details: human, ccd841 cells

T2 sequence (P0C024 14-235): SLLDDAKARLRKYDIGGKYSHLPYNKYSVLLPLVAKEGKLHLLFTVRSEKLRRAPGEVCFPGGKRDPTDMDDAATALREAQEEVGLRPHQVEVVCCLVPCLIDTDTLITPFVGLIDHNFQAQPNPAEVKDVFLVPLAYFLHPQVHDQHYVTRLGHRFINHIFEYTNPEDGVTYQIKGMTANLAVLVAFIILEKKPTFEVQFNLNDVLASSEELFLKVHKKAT
T1 sequence (P02769 whole entry, the tested form may be a part): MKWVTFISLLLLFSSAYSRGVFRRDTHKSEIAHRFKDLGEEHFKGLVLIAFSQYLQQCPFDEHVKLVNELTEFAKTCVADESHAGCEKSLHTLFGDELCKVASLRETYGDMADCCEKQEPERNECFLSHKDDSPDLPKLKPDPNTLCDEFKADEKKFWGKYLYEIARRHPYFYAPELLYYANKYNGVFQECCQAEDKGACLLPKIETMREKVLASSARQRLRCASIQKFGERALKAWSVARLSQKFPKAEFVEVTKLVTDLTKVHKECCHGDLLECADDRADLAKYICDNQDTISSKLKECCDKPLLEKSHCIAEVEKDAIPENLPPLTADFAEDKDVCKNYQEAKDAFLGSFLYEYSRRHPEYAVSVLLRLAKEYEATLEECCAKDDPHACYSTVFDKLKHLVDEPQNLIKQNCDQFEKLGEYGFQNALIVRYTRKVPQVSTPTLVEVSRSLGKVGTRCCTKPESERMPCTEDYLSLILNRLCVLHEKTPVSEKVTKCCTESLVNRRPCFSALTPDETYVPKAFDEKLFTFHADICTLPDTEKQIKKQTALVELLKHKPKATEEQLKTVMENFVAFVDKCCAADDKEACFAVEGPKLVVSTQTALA
T4 sequence (Q92831 whole entry, the tested form may be a part): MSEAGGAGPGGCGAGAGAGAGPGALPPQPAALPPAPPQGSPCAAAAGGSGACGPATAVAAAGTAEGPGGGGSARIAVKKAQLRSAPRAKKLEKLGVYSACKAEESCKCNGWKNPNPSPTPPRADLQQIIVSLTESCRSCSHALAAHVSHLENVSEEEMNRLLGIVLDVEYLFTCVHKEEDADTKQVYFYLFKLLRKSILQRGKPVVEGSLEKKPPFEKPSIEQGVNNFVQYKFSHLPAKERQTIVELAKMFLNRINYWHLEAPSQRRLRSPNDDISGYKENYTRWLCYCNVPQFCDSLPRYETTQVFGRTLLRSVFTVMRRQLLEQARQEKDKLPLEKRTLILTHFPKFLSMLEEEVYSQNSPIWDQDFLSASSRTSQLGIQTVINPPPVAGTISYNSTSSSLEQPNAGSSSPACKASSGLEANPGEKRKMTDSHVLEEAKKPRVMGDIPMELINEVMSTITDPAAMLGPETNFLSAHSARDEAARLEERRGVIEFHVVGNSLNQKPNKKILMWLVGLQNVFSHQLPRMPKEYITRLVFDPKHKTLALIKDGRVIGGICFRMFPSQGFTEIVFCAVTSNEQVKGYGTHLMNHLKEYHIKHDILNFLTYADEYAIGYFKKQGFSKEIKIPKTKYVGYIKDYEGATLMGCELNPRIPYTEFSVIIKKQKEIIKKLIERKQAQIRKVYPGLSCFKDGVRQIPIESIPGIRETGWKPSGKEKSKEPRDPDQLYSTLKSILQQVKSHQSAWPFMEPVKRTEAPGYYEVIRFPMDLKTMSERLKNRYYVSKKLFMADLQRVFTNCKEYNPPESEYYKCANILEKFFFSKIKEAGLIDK

SMILES	BSA (BSA)	NUDT7 (NUDT7)	OTUB2 (OTUB2 (OTUB2A))	PCAF (PCAF)	NNMT (NNMT (hNNMT))	viability at 48 h, 10 µM (in vitro [1]) [%]	viability at 48 h, 10 µM (in vitro [2]) [%]	viability at 48 h, 10 µM (in vitro [3]) [%]
O=C(CCl)N1CCN(C(=O)c2ccco2)CC1 [PCM-0102248]	0.06	0.09	0	0	0.1	35.6	78.1	73.2
C=CC(=O)N1CCC(CN2C(=O)CNC2=O)C1 (centres unmarked) [PCM-0102488]	0	0	0	0	0	100	96.6	114
N#CC1(NC(=O)CCl)CCCCC1 [PCM-0102993]	0	0.08	0	0	0	66	87.6	83.3
C=CC(=O)N1CCC(c2nccn2C)C1 (centres unmarked) [PCM-0102553]	0	0	0	0	0.11	103	99.3	128
C=CC(=O)N1CCC(NC(=O)OC(C)(C)C)CC1 [PCM-0102617]	0	0	0	0	0.16	94.2	104	105
C=CC(=O)N1CC(OC(=O)NC(C)C)C1 [PCM-0102728]	0	0	0.18	0	0	110	99.7	108
Cl.O=C(CCl)N1CCN(c2ccc(F)cc2)CC1 [PCM-0102905]	0	0.1	0.07	0	0.2	56.8	24.7	77
CCOC(=O)C1CCCN(C(=O)CCl)C1 (centres unmarked) [PCM-0103015]	0	0	0.09	0	0.13	98.8	104	98.8
O=C(CCl)Nc1nnc(CC(F)(F)F)o1 [PCM-0102779]	0	0	0	0	0.24	102	106	99.9
O=C(CCl)N1CCC(C(=O)N2CCCCC2)CC1 [PCM-0102972]	0	0	0.08	0	0	76.6	84.6	106
O=C(CCl)N1CCCC1=O [PCM-0102982]	0	0	0	0	0	114	111	101
O=C(CCl)NC(=O)CN1CCCC1=O [PCM-0102824]	0	0	0	0	0	110	105	111
O=C(CCl)N1CCC(C(=O)N2CCCC2)CC1 [PCM-0102655]	0	0	0	0	0.17	87	94	78.5

Now from value to molecule, other results behind:

BSA (BSA)	NUDT7 (NUDT7)	OTUB2 (OTUB2 (OTUB2A))	PCAF (PCAF)	NNMT (NNMT (hNNMT))	SMILES	viability at 48 h, 10 µM (in vitro [1]) [%]	viability at 48 h, 10 µM (in vitro [2]) [%]	viability at 48 h, 10 µM (in vitro [3]) [%]
0	0	0.86	0	0.29	Cc1cccc(CNC(=O)CCl)c1 [PCM-0102821]	87.5	99.7	80.7
0	0.33	0.17	0	0.65	O=C(CCl)N1Cc2ccccc2C(c2ccccc2)C1 (centres unmarked) [PCM-0102432]	20.6	38.2	12.4
0	0.1	0.64	0	0	COc1ccc(Cl)cc1C(=O)NNC(=O)CCl [PCM-0102763]	25.1	73.6	13.4
0.18	0	0.19	0	0.25	N#CCN(C(=O)CCl)c1ccccc1 [PCM-0102471]	16	43.7	24.4
0	0	0	0	0	Cl.O=C(CCl)NCc1ccccn1 [PCM-0102950]	97.4	100	109
0	0.09	0	0	0	CC(C)(C)C(NC(=O)CCl)c1cccs1 (centres unmarked) [PCM-0102773]	63.6	86.9	72.8
0	0.23	0.34	0	0.55	CC(NC(=O)CCl)c1ccc(Br)cc1 (centres unmarked) [PCM-0102374]	50	63.8	73.1
0	0	0	0	0	Cl.O=C(CCl)Nc1cccnc1 [PCM-0102653]	93.3	84.6	85.6
0	0	0	0	0	O=C(CCl)Nc1cccnc1Cl [PCM-0102274]	81.4	84.4	88.8
0	0	0	0	0	COc1ccccc1C(=O)NC(=O)CCl [PCM-0102574]	118	104	127
0	0	0	0	0	CN(C)C(=O)CNC(=O)CCl [PCM-0102365]	95.6	103	100
0	0.09	0	0	0.57	Cc1ccc(NC(=O)NC(=O)CCl)cc1C [PCM-0102119]	63.3	48.8	63.5
0	0	0	0	0	CN(Cc1cccc(F)c1)C(=O)CCl [PCM-0102747]	46.1	64.5	73.1
0	0.24	0.61	0	0.39	Cc1cc(Br)ccc1NC(=O)CCl [PCM-0102799]	4.7	34.9	63.3
0	0	0	0	0	CNC(=O)c1ccc(NC(=O)CCl)cc1 [PCM-0102267]	2.2	20	32.5
